Experimental data from patent US20250353891A1 (MEDIMMUNE LIMITED, priority 2022, published 2025).
Starred links: 1 amine or outer side, 2 acyl side, 3 side chain; linkers in the order of their positions; H or OH if unused. Non-standard residues stand in square brackets, D forms with d. Residues, ends and D or L forms follow the SMILES beside them. Groups on a side chain read outwards from the residue. *: point of attachment. γGlu = O=C(O)[C@H](CCC(=O)[*:2])N[*:1]; Stearoyl = CCCCCCCCCCCCCCCCCC(=O)*; Palmitoyl = CCCCCCCCCCCCCCCC(=O)*; αMeF = C[C@](N)(Cc1ccccc1)C(=O)O; Myristoyl = CCCCCCCCCCCCCC(=O)*; αMeS = C[C@](N)(CO)C(=O)O; PEG2 = NCCOCCOCCC(=O)O; Aib = CC(C)(N)C(=O)O

Legend:
[1] = molecular target: human GLP-1 receptor (hGLP-1R) (Homo sapiens, UniProt P43220); assay: cAMP production (HTRF) in CHO cells expressing hGLP-1R; type: cell-based; set-up: expressed in transfected cells; conditions: for % Relative Potency Ratio: Table 6, % GLP-1R activity relative to GLP-1 / % GlucR activity relative to glucagon
In short: (§1)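 Cells were resuspended in assay buffer at batch-optimized density, typically 1×10^5 cells/mL for hGLP-1R and 2×10^5 cells/mL for hGCGR. After 30 min incubation at room temperature with compound, cAMP was measured by two-step HTRF. EC50 values came from 4-parameter logistic fits of % Delta F.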

[2] = molecular target: human glucagon receptor (hGCGR) (Homo sapiens, UniProt P47871); assay: cAMP production (HTRF) in CHO cells expressing hGCGR; type: cell-based; set-up: expressed in transfected cells; conditions: Table 6, peptides modified at position 17; cAMP in CHO hGCGR cells; geometric mean; read-out: hGluc-R EC50
In short: as §1

Chain of human GLP-1 receptor (hGLP-1R) (P43220 24-463): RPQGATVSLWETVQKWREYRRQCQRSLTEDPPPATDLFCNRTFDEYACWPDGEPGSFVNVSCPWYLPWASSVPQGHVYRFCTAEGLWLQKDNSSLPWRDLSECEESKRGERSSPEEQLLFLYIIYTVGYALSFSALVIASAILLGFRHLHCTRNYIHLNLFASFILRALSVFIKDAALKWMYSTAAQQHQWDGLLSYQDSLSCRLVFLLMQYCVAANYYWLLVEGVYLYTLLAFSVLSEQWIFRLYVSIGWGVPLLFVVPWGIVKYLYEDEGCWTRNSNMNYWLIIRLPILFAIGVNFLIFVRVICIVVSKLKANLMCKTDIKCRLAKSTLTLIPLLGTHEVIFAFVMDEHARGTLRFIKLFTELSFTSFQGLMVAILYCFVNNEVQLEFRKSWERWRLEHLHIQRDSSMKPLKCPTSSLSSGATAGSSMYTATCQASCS
Chain of human glucagon receptor (hGCGR) (P47871 26-477): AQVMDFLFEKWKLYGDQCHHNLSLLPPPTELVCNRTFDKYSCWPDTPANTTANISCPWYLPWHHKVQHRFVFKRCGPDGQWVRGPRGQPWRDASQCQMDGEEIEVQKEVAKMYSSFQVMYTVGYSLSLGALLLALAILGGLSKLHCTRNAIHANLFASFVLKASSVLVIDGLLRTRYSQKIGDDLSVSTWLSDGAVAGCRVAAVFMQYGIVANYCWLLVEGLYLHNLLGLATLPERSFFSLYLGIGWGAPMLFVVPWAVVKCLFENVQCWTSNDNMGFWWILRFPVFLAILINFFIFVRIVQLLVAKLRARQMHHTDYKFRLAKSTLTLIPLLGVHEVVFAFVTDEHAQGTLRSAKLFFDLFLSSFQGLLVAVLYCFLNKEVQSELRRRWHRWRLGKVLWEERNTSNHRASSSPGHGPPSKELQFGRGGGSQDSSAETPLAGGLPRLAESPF

| SMILES | % Relative Potency Ratio [1] | EC50 [2] | EC50 ([1]; Table 6, peptides modified at position 17, cAMP in CHO hGLP-1R cells, geometric mean, read-out: hGLP-1R EC50) |
| --- | --- | --- | --- |
| CCCCCCCCCCCCCCCC(=O)N[C@@H](CCC(=O)N[C@@H](CCC(=O)NCCOCCOCCC(=O)NCCOCCOCCC(=O)NCCCC[C@H](NC(=O)[C@H](CO)NC(=O)[C@H](CC(=O)O)NC(=O)[C@H](CC(C)C)NC(=O)[C@@H](NC(=O)[C@H](CCCCN)NC(=O)[C@H](CO)NC(=O)[C@@H](NC(=O)[C@H](CC(=O)O)NC(=O)[C@H](CO)NC(=O)[C@@H](NC(=O)[C@](C)(Cc1ccccc1)NC(=O)[C@H](CO)NC(=O)CNC(=O)[C@H](CCC(N)=O)NC(=O)[C@](C)(CO)NC(=O)[C@@H](N)Cc1c[nH]cn1)[C@@H](C)O)C(C)C)[C@@H](C)CC)C(=O)N[C@@H](C)C(=O)N[C@@H](C)C(=O)N[C@@H](CCC(N)=O)C(=O)N[C@@H](CC(=O)O)C(=O)N[C@@](C)(Cc1ccccc1)C(=O)N[C@H](C(=O)N[C@@H](CCC(N)=O)C(=O)NC(C)(C)C(=O)N[C@H](C(=O)N[C@H](C(=O)N[C@@H](CC(N)=O)C(=O)N[C@H](C(N)=O)[C@@H](C)O)[C@@H](C)CC)[C@@H](C)CC)C(C)C)C(=O)O)C(=O)O [Peptide 131] (H-H[αMeS]QGS[αMeF]TSDVSKILDSK([PEG2-PEG2-γGlu-γGlu-Palmitoyl])AAQD[αMeF]VQ[Aib]IINT-NH2; N-terminus assumed) | 68.9 | 0.0178 nM | – |
| CCCCCCCCCCCCCC(=O)N[C@@H](CCC(=O)N[C@@H](CCC(=O)NCCOCCOCCC(=O)NCCOCCOCCC(=O)NCCCC[C@H](NC(=O)[C@H](CO)NC(=O)[C@H](CC(=O)O)NC(=O)[C@H](CC(C)C)NC(=O)[C@@H](NC(=O)[C@H](CCCCN)NC(=O)[C@H](CO)NC(=O)[C@@H](NC(=O)[C@H](CC(=O)O)NC(=O)[C@H](CO)NC(=O)[C@@H](NC(=O)[C@](C)(Cc1ccccc1)NC(=O)[C@H](CO)NC(=O)CNC(=O)[C@H](CCC(N)=O)NC(=O)[C@](C)(CO)NC(=O)[C@@H](N)Cc1c[nH]cn1)[C@@H](C)O)C(C)C)[C@@H](C)CC)C(=O)N[C@@H](C)C(=O)N[C@@H](C)C(=O)N[C@@H](CCC(N)=O)C(=O)N[C@@H](CC(=O)O)C(=O)N[C@@](C)(Cc1ccccc1)C(=O)N[C@H](C(=O)N[C@@H](CCC(N)=O)C(=O)NC(C)(C)C(=O)N[C@H](C(=O)N[C@H](C(=O)N[C@@H](CC(N)=O)C(=O)N[C@H](C(N)=O)[C@@H](C)O)[C@@H](C)CC)[C@@H](C)CC)C(C)C)C(=O)O)C(=O)O [Peptide 132] (H-H[αMeS]QGS[αMeF]TSDVSKILDSK([PEG2-PEG2-γGlu-γGlu-Myristoyl])AAQD[αMeF]VQ[Aib]IINT-NH2; N-terminus assumed) | 71.5 | 0.0343 nM | – |
| CCCCCCCCCCCCCCCCCC(=O)N[C@@H](CCC(=O)NCCOCCOCCC(=O)NCCOCCOCCC(=O)NCCCC[C@H](NC(=O)[C@H](CO)NC(=O)[C@H](CC(=O)O)NC(=O)[C@H](CC(C)C)NC(=O)[C@@H](NC(=O)[C@H](CCCCN)NC(=O)[C@H](CO)NC(=O)[C@@H](NC(=O)[C@H](CC(=O)O)NC(=O)[C@H](CO)NC(=O)[C@@H](NC(=O)[C@](C)(Cc1ccccc1)NC(=O)[C@H](CO)NC(=O)CNC(=O)[C@H](CCC(N)=O)NC(=O)[C@](C)(CO)NC(=O)[C@@H](N)Cc1c[nH]cn1)[C@@H](C)O)C(C)C)[C@@H](C)CC)C(=O)N[C@@H](C)C(=O)N[C@@H](C)C(=O)N[C@@H](CCC(N)=O)C(=O)N[C@@H](CC(=O)O)C(=O)N[C@@](C)(Cc1ccccc1)C(=O)N[C@H](C(=O)N[C@@H](CCC(N)=O)C(=O)NC(C)(C)C(=O)N[C@H](C(=O)N[C@H](C(=O)N[C@@H](CC(N)=O)C(=O)N[C@H](C(N)=O)[C@@H](C)O)[C@@H](C)CC)[C@@H](C)CC)C(C)C)C(=O)O [Peptide 133] (H-H[αMeS]QGS[αMeF]TSDVSKILDSK([PEG2-PEG2-γGlu-Stearoyl])AAQD[αMeF]VQ[Aib]IINT-NH2; N-terminus assumed) | 55.9 | 0.03 nM | 0.00106 nM |
